{"source": "paper PMC9446078", "about": "(Frontiers in Endocrinology, 2022)", "key": {"Ea.hy926 cells": {"tested_on": "Ea.hy926 cells", "test": "MTT cytotoxicity in Ea.hy926", "type": "cell-based, human", "details": "Ea.hy926, all tested concentrations (0.01 to 1000 μM); <30% = non-cytotoxic", "protocol": "(§1) 1. HaCaT, HFF-1 and Ea.hy926 cells were counted and plated in 96 well plates at the density corresponding to 5 X 10^3 cells/well/180 μl of cell growth medium.\n(§2) 2. The above cells were then incubated overnight under growth conditions of 37°C, 95 % Humidity, 5 % CO2.so as to allow the cell recovery and exponential growth.\n(§3) 3. Following overnight incubation, the above cells were serum starved in DMEM (containing 25 mM glucose) supplemented with […] for 24 h.\n(§4) 5. The Ea.hy926 cells were then incubated for 24 h and HaCaT and HFF-1 cells were incubated for 48 h in CO2 incubator at 37 °C, 5 % CO2 and 95 % humidity.\n(§5) 6. Following incubation, the plates were taken out and 20 μl of 5 mg/ml of MTT 3-(4,5-dimethythiazol-2-yl)-2,5-diphenyl tetrazolium bromide solution was added to all the wells followed by additional incubation for 3 h at 37 °C. The supernatant was aspirated and 150 μl of DMSO was added to each well to dissolve formazan crystals. The absorbance of each well was then read at 540 nm using Synergy HT micro plate reader.\n(§6) 7. The percentage cytotoxicity at each tested concentration was calculated using the following formula:\n(§7) % Cytotoxicity = (1-X/R)*100"}, "[1]": {"test": "MTT cytotoxicity in Ea.hy926", "type": "cell-based, human", "details": "human, Ea.hy926 cells, Ea.hy926, 24 h, read-out: % Cytotoxicity w.r.t. untreated cells", "protocol": "as §1, §2, §3, §4, §5, §6, §7"}, "[2]": {"test": "Toxicokinetics in miniature swine", "type": "in vivo, Hanford miniature swine", "details": "for Cmax: read-out: Cmax; for Tmax: read-out: Tmax", "protocol": "A total of 40 Hanford miniature swine (20 male and 20 female) divided into four treatment groups were used for this study. A 12-week topical application of Galnobax 20% was carried out in the miniature swine wound healing model with twice-daily dosing. Six wounds (10 cm^2 each) of partial thickness were created on the dorsal region of all animals. Four wounds of each animal received twice-daily topical doses of either the vehicle or Galnobax gel, and the remaining two sites served as untreated comparative control wounds. Each group has four male and female miniature swine for the assessments and one each for the recovery period as given in Table 1 . Safety parameters in terms of ECG, clinical pathology, wound site evaluation, and toxicokinetics were performed during the study."}, "[3]": {"biological_target": "T1, human recombinant aldose reductase (Homo sapiens, UniProt P15121)", "T1 construct": "made in house; host or cells: Escherichia coli", "test": "Aldose reductase inhibition assay (spectrophotometric, glyceraldehyde substrate)", "type": "biochemical", "details": "recombinant enzyme, DL-glyceraldehyde substrate, pH 6.2, 37°C", "protocol": "Recombinant human aldose reductase was purified from bacterial cultures. Enzyme from expression cultures was extracted and purified essentially as described previously ([12]) with the exception that affinity chromatography over AffiGel Blue (Bio-Rad) was used as a final purification step.\nAR activity was assayed according to the method described in the literature ([13]). The assay mixture in 1 ml contained 50 μM potassium phosphate buffer, pH 6.2, 0.4 mM lithium sulfate, 5 μM 2-mercapto ethanol, 10 μM DL-glyceraldehyde, 0.1 μM NADPH, and enzyme preparation (recombinant enzyme). Appropriate blanks were employed for corrections. The assay mixture was incubated at 37°C and initiated by the addition of NADPH at 37°C. The change in absorbance at 340 nm due to NADPH oxidation was followed in a Cary Bio 100 spectrophotometer.\nThe percent of inhibition with a test compound was calculated considering that the AR activity in the absence of an inhibitor was 100%. The concentration of the test sample giving 50% inhibition (IC50) was then estimated."}, "HFF-1 cells": {"tested_on": "HFF-1 cells", "test": "MTT cytotoxicity in HFF-1", "type": "cell-based, human", "details": "HFF-1, all tested concentrations (0.01 to 1000 μM); <30% = non-cytotoxic", "protocol": "as §1, §2, §3, §4, §5, §6, §7"}, "[4]": {"test": "MTT cytotoxicity in HFF-1", "type": "cell-based, human", "details": "human, HFF-1 cells, HFF-1, 48 h, read-out: % Cytotoxicity w.r.t. untreated cells", "protocol": "as §1, §2, §3, §4, §5, §6, §7"}, "[5]": {"tested_on": "HaCaT (human keratinocytes)", "test": "Scratch assay, keratinocyte migration under high glucose", "type": "cell-based", "protocol": "(§8) High blood glucose levels hamper the migration of human fibroblasts, endothelial cells, and keratinocytes that impair wound healing ([16]–[20]). […] The detailed protocol and cytotoxicity results are provided in the Supplementary File. An actively growing culture of HFF-1 (human dermal fibroblasts), Ea.hy926 (human endothelial cells), and HaCaT (human keratinocytes) cell lines in Dulbecco’s modified Eagle’s medium containing 25 mM glucose supplemented with 10% fetal bovine serum was prepared. The cells were counted through a hemocytometer and were seeded at a density of 0.08 × 10^6 (HFF-1), 0.1 × 10^6 (Ea.hy926), and 0.2 × 10^6 (HaCaT Cells) cells/well/ml of culture medium. The plates were incubated overnight followed by serum starvation for 24 h. Scratch wounds were made in a confluent monolayer by making a straight scratch in the center of the well using a sterile 200-µl pipette microtip. […] The kinetics of migration of the cells in the wound was recorded by phase-contrast microscopy. The experiment was carried out in duplicate cells for each concentration."}, "[6]": {"tested_on": "HFF-1 (human dermal fibroblasts)", "test": "Scratch assay, fibroblast migration under high glucose", "type": "cell-based", "protocol": "as §8"}, "[7]": {"test": "MTT cytotoxicity in HaCaT", "type": "cell-based, human", "details": "human, HaCaT cells, 48 h, read-out: % Cytotoxicity w.r.t. untreated cells", "protocol": "as §1, §2, §3, §4, §5, §6, §7"}, "HaCaT cells": {"tested_on": "HaCaT cells", "test": "MTT cytotoxicity in HaCaT", "type": "cell-based, human", "details": "all tested concentrations (0.01 to 1000 μM), <30% = non-cytotoxic", "protocol": "as §1, §2, §3, §4, §5, §6, §7"}, "[8]": {"details": "both sexes, Hanford, pig, blood, topical or ocular, 400 mg, Day 1, Group 2 swine, topical 400 mg Galnobax Gel, mean"}, "[9]": {"details": "both sexes, Hanford, pig, blood, topical or ocular, 400 mg, Week 12, Group 2 swine, topical 400 mg Galnobax Gel BID, mean"}, "[10]": {"details": "1 and 10 µM, compared with control, high glucose"}, "[11]": {"details": "100 and 500 µM compared with 1 and 10 µM"}}, "note": "Structures can show the parent of a compound that is named as a salt. Where two headings read alike, the source gives them in different places.", "data": [{"smiles": "COC(=O)CCc1ccc(OCC(O)CNC(C)C)cc1", "note": "(centres unmarked) [Esmolol hydrochloride]", "values": [{"measurement": "cytotoxicity", "setting": "Ea.hy926 cells", "value": "non-cytotoxic"}, {"measurement": "cytotoxicity at 24 h, 0.01 µM", "setting": "[1]; 0.01 μM", "value": 5.84, "unit": "%"}, {"measurement": "cytotoxicity at 24 h, 0.1 µM", "setting": "[1]; 0.1 μM", "value": 1.73, "unit": "%"}, {"measurement": "cytotoxicity at 24 h, 1 µM", "setting": "[1]; 1 μM", "value": 11.4, "unit": "%"}, {"measurement": "cytotoxicity at 24 h, 10 µM", "setting": "[1]; 10 μM", "value": 13.8, "unit": "%"}, {"measurement": "cytotoxicity at 24 h, 50 µM", "setting": "[1]; 50 μM", "value": 3.85, "unit": "%"}, {"measurement": "cytotoxicity at 24 h, 100 µM", "setting": "[1]; 100 μM", "value": 2.79, "unit": "%"}, {"measurement": "cytotoxicity at 24 h, 500 µM", "setting": "[1]; 500 μM", "value": 17.5, "unit": "%"}, {"measurement": "cytotoxicity at 24 h, 1000 µM", "setting": "[1]; 1000 μM", "value": 12.7, "unit": "%"}, {"measurement": "concentration at 8 hr", "setting": "[2]; both sexes, Hanford, pig (miniature swine), blood, after first topical dose of Galnobax Gel 400 mg, below the quantitation limit, read-out: blood concentration by the second daily dose (8 hr)", "value": "< 5", "unit": "ng/mL"}, {"measurement": "AUC(0-t)", "setting": "[2]; [8]", "value": 18.7, "unit": "ng·h/mL"}, {"measurement": "Cmax", "setting": "[2]; [8]", "value": 30.3, "unit": "ng/mL"}, {"measurement": "Tmax", "setting": "[2]; [8]", "value": 18, "unit": "min"}, {"measurement": "AUC(0-t)", "setting": "[2]; [9]", "value": 17.5, "unit": "ng·h/mL"}, {"measurement": "AUC from 0 to 8 h", "setting": "[2]; both sexes, Hanford, pig, blood, topical or ocular, 400 mg, Week 12, Group 2 swine, topical 400 mg Galnobax Gel BID, mean, read-out: AUC0-8", "value": 35.4, "unit": "ng·h/mL"}, {"measurement": "Cmax", "setting": "[2]; [9]", "value": 140, "unit": "ng/mL"}, {"measurement": "Tmax", "setting": "[2]; [9]", "value": 22.8, "unit": "min"}, {"measurement": "accumulation after 12 weeks of twice-daily topical application", "setting": "[2]; miniature swine, topical Galnobax", "value": "no apparent accumulation"}, {"measurement": "IC50", "setting": "[3]", "value": 150, "unit": "µM"}, {"measurement": "cytotoxicity", "setting": "HFF-1 cells", "value": "non-cytotoxic"}, {"measurement": "cytotoxicity at 48 h, 0.01 µM", "setting": "[4]; 0.01 μM", "value": -21.6, "unit": "%"}, {"measurement": "cytotoxicity at 48 h, 0.1 µM", "setting": "[4]; 0.1 μM", "value": -10.7, "unit": "%"}, {"measurement": "cytotoxicity at 48 h, 1 µM", "setting": "[4]; 1 μM", "value": -8.29, "unit": "%"}, {"measurement": "cytotoxicity at 48 h, 10 µM", "setting": "[4]; 10 μM", "value": -17.1, "unit": "%"}, {"measurement": "cytotoxicity at 48 h, 50 µM", "setting": "[4]; 50 μM", "value": -21.8, "unit": "%"}, {"measurement": "cytotoxicity at 48 h, 100 µM", "setting": "[4]; 100 μM", "value": -21.9, "unit": "%"}, {"measurement": "cytotoxicity at 48 h, 500 µM", "setting": "[4]; 500 μM", "value": 14, "unit": "%"}, {"measurement": "cytotoxicity at 48 h, 1000 µM", "setting": "[4]; 1000 μM", "value": 16.6, "unit": "%"}, {"measurement": "migration of keratinocytes", "setting": "[5]; [10]", "value": "enhanced the migration"}, {"measurement": "migration of keratinocytes", "setting": "[5]; [11]", "value": "lower migration"}, {"measurement": "migration of fibroblasts", "setting": "[6]; [10]", "value": "enhanced the migration"}, {"measurement": "migration of fibroblasts", "setting": "[6]; [11]", "value": "lower migration"}, {"measurement": "cytotoxicity at 48 h, 0.01 µM", "setting": "[7]; 0.01 μM", "value": -19.2, "unit": "%"}, {"measurement": "cytotoxicity at 48 h, 0.1 µM", "setting": "[7]; 0.1 μM", "value": -8.02, "unit": "%"}, {"measurement": "cytotoxicity at 48 h, 1 µM", "setting": "[7]; 1 μM", "value": -6.93, "unit": "%"}, {"measurement": "cytotoxicity at 48 h, 10 µM", "setting": "[7]; 10 μM", "value": -14.8, "unit": "%"}, {"measurement": "cytotoxicity at 48 h, 50 µM", "setting": "[7]; 50 μM", "value": -18.1, "unit": "%"}, {"measurement": "cytotoxicity at 48 h, 100 µM", "setting": "[7]; 100 μM", "value": -18.5, "unit": "%"}, {"measurement": "cytotoxicity at 48 h, 500 µM", "setting": "[7]; 500 μM", "value": 16.2, "unit": "%"}, {"measurement": "cytotoxicity at 48 h, 1000 µM", "setting": "[7]; 1000 μM", "value": 18.3, "unit": "%"}, {"measurement": "cytotoxicity", "setting": "HaCaT cells", "value": "non-cytotoxic"}]}]}
